Laboratory results published in ChEMBL document CHEMBL1201862, “PubChem BioAssay data set” (2004).
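Each compound was tested at five concentrations against cells in 96-well plates for 48 hours. Here, GI50 denotes the concentration required for 50% inhibition of growth.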 Calls of active or inactive are those of the source. Cut-off read from the data, not from the text of the source: active = GI50 up to about 1.1 µM and inactive = higher.

How the values were obtained:
Test in all cases: NCI tumour cell line growth inhibition, 48 h
[1] = test system: NCI-H226
[2] = test system: EKVX
[3] = test system: COLO 205
[4] = test system: OVCAR-8
[5] = test system: OVCAR-4
[6] = test system: SK-MEL-28
[7] = test system: NCI-H23
[8] = test system: UACC-62
[9] = test system: UO-31
[10] = test system: SK-OV-3
[11] = test system: M14
[12] = test system: HCC 2998
[13] = test system: A498
[14] = test system: KM12
[15] = test system: SN12C
[16] = test system: NCI-H522
[17] = test system: OVCAR-5
[18] = test system: SR

SMILES | GI50 [1] | GI50 [2] | GI50 [3] | GI50 [4] | GI50 [5] | GI50 [6] | GI50 [7] | GI50 [8] | GI50 [9] | GI50 [10] | GI50 [11] | GI50 [12] | GI50 [13] | GI50 [14] | GI50 [15] | GI50 [16] | GI50 [17] | GI50 [18]
CC/C=C1\N=C(c2ccc(Cl)cc2)OC1=O | > 100 µM (inactive) | > 100 µM (inactive) | > 100 µM (inactive) | > 100 µM (inactive) | > 100 µM (inactive) | > 100 µM (inactive) | > 100 µM (inactive) | > 100 µM (inactive) | > 100 µM (inactive) | > 100 µM (inactive) | > 100 µM (inactive) | > 100 µM (inactive) | > 100 µM (inactive) | > 100 µM (inactive) | > 100 µM (inactive) | > 100 µM (inactive) | > 100 µM (inactive) | 
COc1ccc2c3c([nH]c2c1[N+](=O)[O-])C(C)N(Cc1ccccc1)CC3 (stereo not drawn) | 4.49 µM (inactive) | 40.3 µM (inactive) | 3.17 µM (inactive) | 3.72 µM (inactive) | 13.9 µM (inactive) | 7.69 µM (inactive) | 7.94 µM (inactive) | 3.1 µM (inactive) | 13.8 µM (inactive) |  | 3.76 µM (inactive) | 11.5 µM (inactive) | 2.4 µM (inactive) | 3.59 µM (inactive) | 5.81 µM (inactive) |  | 43.3 µM (inactive) | 4.49 µM (inactive)
COc1c(C)cc2c(c1O)C1NC(C2)[C@H](O)N2C3COC(=O)[C@@]4(CS[C@@H](c5c(OC(C)=O)c(C)c6c(c53)OCO6)C12)NCCC1=C4NC2C=CC=CC12 (stereo partly drawn) | < 0.01 µM (active) | < 0.01 µM (active) | < 0.01 µM (active) | < 0.01 µM (active) |  | < 0.01 µM (active) | < 0.01 µM (active) | < 0.01 µM (active) | 0.0148 µM (active) |  | < 0.01 µM (active) | < 0.01 µM (active) | < 0.01 µM (active) |  | < 0.01 µM (active) |  |  | < 0.01 µM (active)
Cc1ccc(C)c(NC(=O)C(=O)C(C2C(C)CC(=O)C2CC(=O)O)[N+](=O)[O-])c1 (stereo not drawn) | > 100 µM (inactive) | > 100 µM (inactive) | > 100 µM (inactive) |  | > 100 µM (inactive) | > 100 µM (inactive) | > 100 µM (inactive) | > 100 µM (inactive) | > 100 µM (inactive) | > 100 µM (inactive) | > 100 µM (inactive) | > 100 µM (inactive) | > 100 µM (inactive) | > 100 µM (inactive) | > 100 µM (inactive) |  | > 100 µM (inactive) | > 100 µM (inactive)
C[N+](C)(C)Cc1c(CC#N)[nH]c2ccccc12 | > 100 µM (inactive) | > 100 µM (inactive) | > 100 µM (inactive) | > 100 µM (inactive) | 1.2 µM (inactive) | > 100 µM (inactive) | > 100 µM (inactive) | > 100 µM (inactive) | 76.7 µM (inactive) |  | 84.7 µM (inactive) | > 100 µM (inactive) | > 100 µM (inactive) | > 100 µM (inactive) | > 100 µM (inactive) | 36.8 µM (inactive) | > 100 µM (inactive) | 44.6 µM (inactive)
CC1CC2CC(=O)CC3(C1)C2CCCN3CCCO (stereo not drawn) | > 100 µM (inactive) | > 100 µM (inactive) | > 100 µM (inactive) | > 100 µM (inactive) | > 100 µM (inactive) | > 100 µM (inactive) | > 100 µM (inactive) | > 100 µM (inactive) | > 100 µM (inactive) | > 100 µM (inactive) | > 100 µM (inactive) |  | > 100 µM (inactive) | > 100 µM (inactive) | > 100 µM (inactive) | > 100 µM (inactive) | > 100 µM (inactive) | > 100 µM (inactive)
COC1OC(CO)C(O)C(O)C1Br (stereo not drawn) |  |  | > 100 µM (inactive) | > 100 µM (inactive) | > 100 µM (inactive) | > 100 µM (inactive) | > 100 µM (inactive) | > 100 µM (inactive) |  |  | > 100 µM (inactive) | > 100 µM (inactive) | > 100 µM (inactive) | > 100 µM (inactive) | > 100 µM (inactive) | > 100 µM (inactive) | > 100 µM (inactive) | > 100 µM (inactive)
CC(=O)n1ccc2c(Cl)ncnc21 |  | > 67.3 µM (inactive) | > 100 µM (inactive) | > 100 µM (inactive) |  | > 100 µM (inactive) | > 100 µM (inactive) | > 100 µM (inactive) |  | > 100 µM (inactive) | > 100 µM (inactive) | > 100 µM (inactive) | > 100 µM (inactive) | > 100 µM (inactive) | > 100 µM (inactive) | > 37.6 µM (inactive) |  | > 100 µM (inactive)
O=C1C2=C(c3ccccc31)C(c1ccc(F)cc1)N1C(=O)CCSC1=N2 (stereo not drawn) | 93.3 µM (inactive) | > 100 µM (inactive) | > 100 µM (inactive) | > 100 µM (inactive) | 56 µM (inactive) | > 100 µM (inactive) | > 100 µM (inactive) | 62.1 µM (inactive) | 39.9 µM (inactive) | > 100 µM (inactive) | > 100 µM (inactive) | > 100 µM (inactive) | > 100 µM (inactive) | 55.1 µM (inactive) | 42.9 µM (inactive) | 72.8 µM (inactive) | > 100 µM (inactive) | 
CC[P+](C)(Cc1ccccc1)c1ccccc1.O=C(OC(C(=O)[O-])C(OC(=O)c1ccccc1)C(=O)O)c1ccccc1 (stereo not drawn) |  | > 100 µM (inactive) | > 100 µM (inactive) | > 100 µM (inactive) | > 100 µM (inactive) | > 100 µM (inactive) | > 100 µM (inactive) | > 100 µM (inactive) | > 100 µM (inactive) | > 100 µM (inactive) | > 100 µM (inactive) | > 100 µM (inactive) |  | > 100 µM (inactive) | > 100 µM (inactive) |  | > 100 µM (inactive) | 
N/C(=N\O)N/N=C/c1ccc(C(F)(F)F)cc1 |  | 4.23 µM (inactive) | 17.9 µM (inactive) | 13.4 µM (inactive) | 4.86 µM (inactive) | 62.4 µM (inactive) | 15 µM (inactive) | 4.66 µM (inactive) |  | 6.98 µM (inactive) | 10.6 µM (inactive) |  | 17.1 µM (inactive) | 13.1 µM (inactive) | 24.7 µM (inactive) | 10.3 µM (inactive) |  | 6.85 µM (inactive)
Nc1nc(SCCNC(=O)CCc2ccc(O)cc2)nc2c1ncn2C1OC(CO)C(O)C1O (stereo not drawn) | > 203 µM (inactive) |  | > 203 µM (inactive) | > 203 µM (inactive) | > 203 µM (inactive) | > 203 µM (inactive) | > 203 µM (inactive) | > 203 µM (inactive) | > 203 µM (inactive) | > 203 µM (inactive) | > 203 µM (inactive) | > 203 µM (inactive) | > 203 µM (inactive) | > 203 µM (inactive) | > 203 µM (inactive) | > 203 µM (inactive) | > 203 µM (inactive) | > 203 µM (inactive)
O=Cc1cn(S(=O)(=O)c2ccccc2)c2ccccc12 | 70.3 µM (inactive) | > 100 µM (inactive) |  | 33.5 µM (inactive) | 33.6 µM (inactive) | 32.4 µM (inactive) | 26.4 µM (inactive) | 26.9 µM (inactive) | 18.7 µM (inactive) | > 100 µM (inactive) | 31.3 µM (inactive) | > 100 µM (inactive) | > 100 µM (inactive) | 86.5 µM (inactive) | 42.4 µM (inactive) |  | > 100 µM (inactive) | 20.1 µM (inactive)
O=C(c1ccccc1)c1nc2c(Cl)ccc(Cl)c2cc1C(Br)Br | 1.97 µM (inactive) |  | 3.19 µM (inactive) | 1.44 µM (inactive) | 1.82 µM (inactive) | 0.215 µM (active) |  | 1.25 µM (inactive) | 1.29 µM (inactive) |  | 1.4 µM (inactive) | 2.06 µM (inactive) |  | 1.14 µM (inactive) | 1.17 µM (inactive) | 1.54 µM (inactive) | 1.08 µM (active) | 1.59 µM (inactive)
Cc1ccccc1C(=O)N1CCN(C(=O)c2ccccc2C)CC1 |  | > 100 µM (inactive) |  | > 100 µM (inactive) | > 100 µM (inactive) | > 100 µM (inactive) | > 100 µM (inactive) | > 100 µM (inactive) | > 100 µM (inactive) | > 100 µM (inactive) | > 100 µM (inactive) | > 100 µM (inactive) | > 100 µM (inactive) | > 100 µM (inactive) | > 100 µM (inactive) | > 100 µM (inactive) | > 100 µM (inactive) | > 100 µM (inactive)
COc1cc2ccnc(C#N)c2cc1OCc1ccccc1 |  | > 100 µM (inactive) |  | > 100 µM (inactive) | 33.7 µM (inactive) | > 100 µM (inactive) | > 100 µM (inactive) |  | > 100 µM (inactive) |  | > 100 µM (inactive) | > 100 µM (inactive) | 87.1 µM (inactive) | > 100 µM (inactive) | > 100 µM (inactive) | 50 µM (inactive) | > 100 µM (inactive) | 
Cc1ccc(S(=O)(=O)N2CCC2c2ccccc2)cc1 (stereo not drawn) | 28.6 µM (inactive) | 64 µM (inactive) | > 100 µM (inactive) | > 100 µM (inactive) | 46.6 µM (inactive) | > 100 µM (inactive) | 76.4 µM (inactive) | 76.7 µM (inactive) | 23.1 µM (inactive) | > 100 µM (inactive) | > 100 µM (inactive) | > 100 µM (inactive) | > 100 µM (inactive) | 82 µM (inactive) | > 100 µM (inactive) | 74 µM (inactive) |  | 
COc1ccc(C2=NC(C)(C)CO2)cc1 |  | > 100 µM (inactive) | > 100 µM (inactive) | > 100 µM (inactive) | > 100 µM (inactive) | > 100 µM (inactive) | > 100 µM (inactive) | > 100 µM (inactive) |  |  |  |  | > 100 µM (inactive) | > 100 µM (inactive) | > 100 µM (inactive) |  | > 100 µM (inactive) | > 100 µM (inactive)
